Consider eleven compounds from PubChem BioAssay (NCI).

Where “and” joins values, the source holds several entries; their conditions need not be identical. Equal entries are not always repeated.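 All cell lines were grown in 96-well plates and treated with compound for 48 hours. At the GI50, growth is halved. TGI denotes the concentration required for complete inhibition of growth.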

Some test systems named below: HT29 colon; 786-0 renal; OVCAR-3 ovarian; SR leukemia; SF-295 CNS; SNB-19 CNS; SK-MEL-2 melanoma; NCI-H23 lung; K-562 leukemia; HOP-92 NSCLC.
Holding throughout (assay): NCI-60 cell line screen, 48 h

As to `CC(=O)C1=C(O)C=C2Oc3c(C(=O)/C=C/c4cc(C(F)(F)F)cc(C(F)(F)F)c4)c(O)c(C)c(O)c3[C@]2(C)C1=O`, the GI50 is 0.535 µM in the test with HT29 colon; 0.602 µM with 786-0 renal; 0.543 µM in the test with OVCAR-3 ovarian; 0.44 µM in the test on SR leukemia; 0.627 µM with SF-295 CNS; 0.674 µM with SNB-19 CNS. The GI50 is 0.448 µM in the test with SK-MEL-2 melanoma, 0.528 µM in the test with NCI-H23 lung and 0.498 µM in the test with K-562 leukemia. Moreover, the TGI amounted to 1.71 µM in the test with HT29 colon; 2.35 µM in the test with 786-0 renal; 2.27 µM with OVCAR-3 ovarian; 3.32 µM in the test on SR leukemia; 4.76 µM in the test on SF-295 CNS; 4.89 µM with SNB-19 CNS. For the same compound, the TGI in the test with SK-MEL-2 melanoma stood at 1.27 µM; in the test on NCI-H23 lung, 2.87 µM; in the test on K-562 leukemia it was 15 µM.
For `N#C/C(=C\c1ccccc1O)C(N)=O`, the TGI in the test on HT29 colon, with 786-0 renal, with OVCAR-3 ovarian, with SF-295 CNS, with SNB-19 CNS and in the test with HOP-92 NSCLC was greater than 100 µM each time. Also, the TGI with SK-MEL-2 melanoma, in the test with NCI-H23 lung and with K-562 leukemia was greater than 100 µM each time.
Take `Cc1[nH]ncc1-c1cc2nc(C3CC4CCN3CC4)[nH]c(=O)c2s1` (centres undefined): the GI50 in the test with HT29 colon was 3.85 µM; with 786-0 renal, 2.92 µM; with OVCAR-3 ovarian, 3.74 µM; in the test on SF-295 CNS, 2.88 µM; in the test on SNB-19 CNS, 4.78 µM; in the test on HOP-92 NSCLC, 5.5 µM. The GI50 in the test on SK-MEL-2 melanoma is 8.8 µM; with NCI-H23 lung it was 3.82 µM; in the test with K-562 leukemia it was 6.54 µM. Moreover, the TGI with HT29 colon, with 786-0 renal, in the test with OVCAR-3 ovarian, in the test on SF-295 CNS, in the test on SNB-19 CNS and in the test on HOP-92 NSCLC was greater than 100 µM throughout. Besides, the figures for the TGI in the test on SK-MEL-2 melanoma, with NCI-H23 lung and in the test with K-562 leukemia were 29.5 µM, greater than 100 µM and greater than 100 µM, respectively.
`CC(C)(C)OC(=O)NCCNC1=CC(=O)c2nc3ccccc3c3ccnc1c23`: the GI50 in the test on HT29 colon is 17.9 µM; with 786-0 renal, 28.5 µM; with OVCAR-3 ovarian, 13.8 µM; in the test with SF-295 CNS, 18.2 µM; in the test on SNB-19 CNS, 22.7 µM; in the test with HOP-92 NSCLC, 17.9 µM. Further, the GI50 was 28.4 µM with SK-MEL-2 melanoma, 17.1 µM with NCI-H23 lung and 0.131 µM in the test on K-562 leukemia. Moreover, the TGI in the test on HT29 colon is 43.8 µM; with 786-0 renal it was greater than 100 µM; in the test with OVCAR-3 ovarian, 67 µM; in the test with SF-295 CNS it was 40 µM; with SNB-19 CNS, 83.7 µM; in the test with HOP-92 NSCLC, 42.5 µM. Further, the results for the TGI with SK-MEL-2 melanoma, in the test on NCI-H23 lung and in the test on K-562 leukemia were 85.1 µM, 46.8 µM and greater than 100 µM, respectively.
Turning to `CCC(C)CN1C(=O)NC(C)(Cc2ccccc2)C1=O` (centres undefined), the TGI with HT29 colon, in the test with 786-0 renal, with SR leukemia, in the test on SF-295 CNS, in the test with SNB-19 CNS and with HOP-92 NSCLC was greater than 100 µM in each case. Besides, the TGI with SK-MEL-2 melanoma and in the test on NCI-H23 lung was greater than 100 µM in each case.
For `CCCCCCCCCCCOC(=S)NC(C)C`, the TGI is 34.6 µM in the test with HT29 colon; 39.3 µM in the test on 786-0 renal; 44.3 µM with SR leukemia; 40.7 µM with SF-295 CNS; greater than 100 µM in the test on SNB-19 CNS; 32.2 µM in the test with HOP-92 NSCLC. The values for the TGI in the test on SK-MEL-2 melanoma, with NCI-H23 lung and with K-562 leukemia were 40 µM, 38.1 µM and 46.4 µM, respectively.
For `CN1CCc2cc3c(cc2C1O)OCO3` (centres undefined), the GI50 with HT29 colon was 21.4 µM and > 100 µM; in the test on 786-0 renal, 17.6 µM and > 100 µM; in the test on SF-295 CNS, 26.7 µM and > 100 µM; with SNB-19 CNS, 34.6 µM and > 100 µM; in the test on HOP-92 NSCLC, 20.8 µM and > 100 µM. Moreover, the TGI in the test with HT29 colon was 47.1 µM and > 100 µM; with 786-0 renal, 34.5 µM and > 100 µM; in the test with SR leukemia, greater than 100 µM; in the test on SF-295 CNS it was greater than 100 µM; with SNB-19 CNS, greater than 100 µM; with HOP-92 NSCLC, 39 µM and > 100 µM. In addition, the TGI in the test on SK-MEL-2 melanoma was 13 µM and > 100 µM; in the test on NCI-H23 lung it was 32.1 µM and > 100 µM; with K-562 leukemia, greater than 100 µM.
As for `N#Cc1cccc(N2C(=O)c3c(c(-c4ccccc4)c(-c4ccc(Sc5ccc(-c6c(-c7ccccc7)c7c(c(-c8ccccc8)c6-c6ccccc6)C(=O)N(c6cccc(C#N)c6)C7=O)cc5)cc4)c(-c4ccccc4)c3-c3ccccc3)C2=O)c1`, the TGI with HT29 colon is greater than 100 µM; with 786-0 renal it was greater than 100 µM; in the test on OVCAR-3 ovarian, greater than 100 µM; in the test on SF-295 CNS, greater than 100 µM; in the test on SNB-19 CNS, greater than 100 µM; in the test with HOP-92 NSCLC it was 99.4 µM. Also, the TGI with SK-MEL-2 melanoma, in the test on NCI-H23 lung and with K-562 leukemia was greater than 100 µM each time.
On to `N=C(c1ccccc1)N(c1ccccc1)c1ccccc1`, for which the TGI in the test with HT29 colon, in the test with 786-0 renal, with SR leukemia, in the test with SF-295 CNS, in the test with SNB-19 CNS and in the test on SK-MEL-2 melanoma was greater than 100 µM each time. In the test with NCI-H23 lung, the TGI was greater than 100 µM.
As for `O=[N+]([O-])c1ccc(Nc2ccccc2-c2ccccc2)c2nonc12`, the GI50 is 19.3 µM with HT29 colon; 12.6 µM in the test on 786-0 renal; 9.15 µM in the test on OVCAR-3 ovarian; 11.7 µM in the test with SF-295 CNS; 14.5 µM with SNB-19 CNS; 3.15 µM in the test on HOP-92 NSCLC. For the same compound, the GI50 in the test with SK-MEL-2 melanoma was 6.16 µM; in the test on NCI-H23 lung, 8.63 µM; in the test with K-562 leukemia, 18 µM. In addition, the TGI in the test with HT29 colon came out at 47.2 µM; in the test with 786-0 renal, 32.6 µM; with OVCAR-3 ovarian, 22.8 µM; in the test with SF-295 CNS, 29.7 µM; in the test on SNB-19 CNS it was 32.3 µM; with HOP-92 NSCLC it was 23.4 µM. For the same compound, the TGI with SK-MEL-2 melanoma is 20.3 µM; in the test with NCI-H23 lung, 26.1 µM; in the test with K-562 leukemia, greater than 100 µM.
Consider `COc1cc2c(/C=N\N=C(N)N)c(Cl)[nH]c2cc1C`, for which the GI50 in the test with 786-0 renal is 14.4 µM; in the test on OVCAR-3 ovarian, 5.49 µM; with SR leukemia it was 3.34 µM; in the test with SF-295 CNS, 8.28 µM; with SNB-19 CNS, 12.7 µM; in the test on SK-MEL-2 melanoma, 34.5 µM. Further, the GI50 is 14.1 µM in the test on NCI-H23 lung and 4.36 µM with K-562 leukemia. The TGI with 786-0 renal was 28.3 µM; in the test with OVCAR-3 ovarian, 20.6 µM; in the test with SR leukemia, 8.22 µM; in the test with SF-295 CNS, 23.1 µM; with SNB-19 CNS it was 29.2 µM; in the test on SK-MEL-2 melanoma, greater than 100 µM. The results for the TGI in the test on NCI-H23 lung and in the test on K-562 leukemia were 28 µM and 19.7 µM, respectively.
